The record followed here is ChEMBL document CHEMBL4152288, “Medicinal Chemistry and Use of Myosin II Inhibitor ( S)-Blebbistatin and Its Derivatives” (J Med Chem, 2018).

A short description of data set [1]: Inhibition of human myosin 2a ATPase activity.
Data set [2] concerns the target T1, Myosin-2 heavy chain (Dictyostelium discoideum, UniProt P08799). The data set is described as follows: Inhibition of Dictyostelium discoideum myosin 2 ATPase activity by NADH-coupled assay.
The species entered for data set [3] is Oryctolagus cuniculus. In words: Inhibition of rabbit skeletal myosin 2 ATPase activity at 5 uM relative to control.
Data set [4] addresses Myosin-2 heavy chain (Dictyostelium discoideum) (UniProt P08799). The data set is described as follows: Inhibition of Dictyostelium discoideum myosin 2 ATPase activity at 50 uM relative to control.
Data set [5] is filed under the species Oryctolagus cuniculus. The data set is described as follows: Inhibition of rabbit skeletal myosin 2 ATPase activity at 50 uM relative to control.
A further data set deals with Myosin-4 (Oryctolagus cuniculus, UniProt Q28641). In words: Inhibition of rabbit skeletal muscle myosin 2.
Myosin-4, sequence (Q28641 whole entry): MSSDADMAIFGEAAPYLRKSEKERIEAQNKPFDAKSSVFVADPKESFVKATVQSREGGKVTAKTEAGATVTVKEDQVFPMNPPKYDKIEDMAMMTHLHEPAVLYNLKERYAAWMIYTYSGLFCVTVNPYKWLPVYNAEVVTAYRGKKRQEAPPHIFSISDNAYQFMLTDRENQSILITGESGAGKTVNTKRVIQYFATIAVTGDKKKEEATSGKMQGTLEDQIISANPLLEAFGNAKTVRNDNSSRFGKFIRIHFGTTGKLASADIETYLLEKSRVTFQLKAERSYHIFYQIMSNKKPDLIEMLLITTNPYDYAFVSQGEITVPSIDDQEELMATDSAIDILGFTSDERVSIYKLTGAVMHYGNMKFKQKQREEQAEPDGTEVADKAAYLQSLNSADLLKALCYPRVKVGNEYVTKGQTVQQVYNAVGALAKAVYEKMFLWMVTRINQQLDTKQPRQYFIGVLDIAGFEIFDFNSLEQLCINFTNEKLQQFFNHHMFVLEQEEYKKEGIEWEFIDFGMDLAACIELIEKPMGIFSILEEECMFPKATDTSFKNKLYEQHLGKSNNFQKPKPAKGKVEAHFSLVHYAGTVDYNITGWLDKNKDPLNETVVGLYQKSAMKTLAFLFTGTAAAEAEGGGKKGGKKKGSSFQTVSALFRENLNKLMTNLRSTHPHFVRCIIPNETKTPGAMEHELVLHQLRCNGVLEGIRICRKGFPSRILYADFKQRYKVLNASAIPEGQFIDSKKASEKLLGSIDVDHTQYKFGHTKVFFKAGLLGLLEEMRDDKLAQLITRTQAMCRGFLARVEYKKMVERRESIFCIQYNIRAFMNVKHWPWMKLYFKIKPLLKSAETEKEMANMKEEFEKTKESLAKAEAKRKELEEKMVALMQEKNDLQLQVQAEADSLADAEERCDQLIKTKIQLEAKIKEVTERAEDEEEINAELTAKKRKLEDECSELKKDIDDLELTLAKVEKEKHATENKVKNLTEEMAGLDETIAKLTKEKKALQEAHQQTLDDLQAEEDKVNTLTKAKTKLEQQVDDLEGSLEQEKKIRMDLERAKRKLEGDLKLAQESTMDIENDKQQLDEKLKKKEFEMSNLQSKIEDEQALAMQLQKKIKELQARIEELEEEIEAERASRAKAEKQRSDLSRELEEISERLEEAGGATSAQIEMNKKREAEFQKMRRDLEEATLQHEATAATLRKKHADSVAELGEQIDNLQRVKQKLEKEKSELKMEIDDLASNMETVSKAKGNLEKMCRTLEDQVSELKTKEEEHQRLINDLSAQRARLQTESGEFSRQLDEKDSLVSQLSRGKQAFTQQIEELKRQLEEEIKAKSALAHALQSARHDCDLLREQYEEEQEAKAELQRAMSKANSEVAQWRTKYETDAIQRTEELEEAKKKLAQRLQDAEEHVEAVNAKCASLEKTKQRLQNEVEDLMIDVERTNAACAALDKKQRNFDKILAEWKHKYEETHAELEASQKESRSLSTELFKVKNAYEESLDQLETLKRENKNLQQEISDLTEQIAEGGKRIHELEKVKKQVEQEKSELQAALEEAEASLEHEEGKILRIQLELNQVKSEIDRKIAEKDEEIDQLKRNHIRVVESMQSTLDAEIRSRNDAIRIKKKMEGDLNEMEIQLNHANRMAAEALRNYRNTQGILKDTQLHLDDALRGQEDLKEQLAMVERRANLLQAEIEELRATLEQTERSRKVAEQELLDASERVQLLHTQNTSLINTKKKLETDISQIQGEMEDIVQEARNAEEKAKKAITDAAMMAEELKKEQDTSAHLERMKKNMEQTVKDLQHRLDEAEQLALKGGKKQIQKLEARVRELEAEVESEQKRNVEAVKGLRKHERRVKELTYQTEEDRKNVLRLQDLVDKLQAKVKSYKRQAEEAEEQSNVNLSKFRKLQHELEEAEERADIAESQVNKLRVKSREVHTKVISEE
Data set [6] relates to DU-145. In words: Cytotoxicity against human DU145 cells assessed as cell death at 200 uM after 3 hrs relative to control. Format: functional.
Data set [7] is described as follows: Cytotoxicity against F11-hTERT cells (unknown origin) assessed as cell death at 200 uM after 3 hrs relative to control. The class given is functional.
A short description of data set [8]: Toxicity in zebrafish embryo assessed as mortality at 10 uM in presence 0.4 uJ/cm2 of irradiation measured after 36 hrs relative to control. Format: organism-based, Danio rerio. The note with it: zebrafish embryos, read-out: Activity.
The subject of data set [9] is DU-145. The data set is described as follows: Cytotoxicity against human DU145 cells assessed as cell death at 200 uM after 24 hrs relative to control. The class given is functional.
A short description of data set [10]: Toxicity in Dictyostelium discoideum assessed as mortality at 20 uM after 3 days relative to control. The class given is organism-based. The note with it: Dictyostelium discoideum cells, read-out: Activity.
For a further data set, the system named is Capan-2. In words: Cytotoxicity against human Capan2 cells assessed as cell death at 400 uM after 24 hrs. The class given is functional.
Data set [11] in a line: Cytotoxicity against human Fem-X cells assessed as cell death at 200 uM after 3 hrs relative to control. Format: functional.
The next data set concerns BXPC-3. The data set is described as follows: Cytotoxicity against human BxPC3 cells assessed as cell death at 400 uM after 24 hrs. Format: functional.
Data set [12] is described as follows: Cytotoxicity against human Fem-X cells assessed as cell death at 200 uM after 24 hrs relative to control. The class given is functional.
Another data set concerns PANC-1. In words: Cytotoxicity against human PANC1 cells assessed as cell death at 400 uM after 24 hrs. The class given is functional.
Data set [13] relates to LNCaP. The data set is described as follows: Cytotoxicity against human LNCAP cells assessed as cell death at 200 uM after 24 hrs relative to control. The class given is functional.
The subject of another data set is HeLa. The data set is described as follows: Cytotoxicity against human HeLa cells assessed as cell death at 20 uM measured after 3 days by trypan blue based light microscopy relative to control.
A short description of data set [14]: Cytotoxicity against F11-hTERT cells (unknown origin) assessed as cell death at 200 uM after 24 hrs relative to control. Format: functional.
For data set [15], the system named is LNCaP. The data set is described as follows: Cytotoxicity against human LNCAP cells assessed as cell death at 200 uM after 3 hrs relative to control. Format: functional.
The nature of data set [16]: Steady state aqueous solubility of the compound in 10 % DMSO buffer up to 240 mins. The class given is physicochemical. The note with it: 4 h.
The next data set deals with MIA PaCa-2. The data set is described as follows: Cytotoxicity against human MIAPaCa2 cells assessed as cell death at 400 uM after 24 hrs. The class given is functional.
Data set [17] deals with U-87 MG. In words: Cytotoxicity against human U87 cells assessed as cell death at 200 uM after 3 hrs relative to control. Format: functional, U-87MG ATCC.
Data set [18] relates to U-87 MG. In words: Cytotoxicity against human U87 cells assessed as cell death at 200 uM after 24 hrs relative to control. The class given is functional, U-87MG ATCC.
Data set [19] in a line: Steady state aqueous solubility of the compound in 0.1 % DMSO buffer at 25 degC. Format: physicochemical. The note with it: aqueous buffer with 0.1% DMSO.
The target of data set [20] is T1, Myosin-2 heavy chain. In words: Inhibition of Dictyostelium discoideum myosin 2 ATPase activity.
Data set [21] can be described thus: Inhibition of bay scallop striated muscle myosin heavy chain.
Data set [22] is described as follows: Inhibition of chicken smooth muscle myosin 2 ATPase activity preincubated for 60 mins followed by ATP addition measured after 10 mins by malachite green based assay.
Another data set deals with Myosin IC heavy chain (Acanthamoeba castellanii, UniProt P10569). In words: Inhibition of dephosphorylated Acanthamoeba […] myosin 1c by NADH-coupled spectrophotometric analysis.
For the next data set, the target named is Myosin-10 (Homo sapiens, UniProt P35580). In words: Inhibition of human non-muscle myosin 2b.
Data set [23] deals with Myosin heavy chain, non-muscle (Drosophila melanogaster, UniProt Q99323). In words: Inhibition of fruit fly non-muscle myosin 2.
The target of another data set is Unconventional myosin-Ib (Rattus norvegicus, UniProt Q05096). The data set is described as follows: Inhibition of rat myosin 1b by NADH-coupled spectrophotometric analysis.
A further data set has as its target Myosin-7 (Sus scrofa, UniProt P79293). In words: Inhibition of pig beta cardiac myosin 2 by NADH-coupled spectrophotometric analysis.
Another data set concerns the target Unconventional myosin-Va (Mus musculus, UniProt Q99104). The data set is described as follows: Inhibition of mouse myosin 5a by NADH-coupled spectrophotometric analysis.
Data set [24] can be described thus: Inhibition of Bos taurus smooth muscle myosin 2 ATPase activity.
In data set [25] the target is Myosin-2 heavy chain, non muscle (Acanthamoeba castellanii, UniProt P05659). The data set is described as follows: Inhibition of dephosphorylated Acanthamoeba non muscle myosin 2 by NADH-coupled spectrophotometric analysis.
Another data set concerns the target Myosin-9 (Homo sapiens, UniProt P35579). In words: Inhibition of human non-muscle myosin 2a.
The target of a further data set is Unconventional myosin-X (Bos taurus, UniProt P79114). The data set is described as follows: Inhibition of bovine myosin x by NADH-coupled spectrophotometric analysis.
The target of a further data set is Myosin-14 (Mus musculus, UniProt Q6URW6). In words: Inhibition of mouse non-muscle myosin 2c.
Data set [26] has as its target Nonmuscle myosin heavy chain (Gallus gallus, UniProt Q789A4). The data set is described as follows: Inhibition of chicken non-muscle myosin 2b by NADH-coupled spectrophotometric analysis.
In a further data set the target is Unconventional myosin-XV (Homo sapiens, UniProt Q9UKN7). The data set is described as follows: Inhibition of human myosin 15 by NADH-coupled spectrophotometric analysis.
Data set [27] is described as follows: Inhibition of Meleagris gallopavo smooth muscle myosin 2 ATPase activity.

In brackets after ≈: the same amount, converted by molar mass.

What is called IC50 is the midpoint of a concentration-inhibition curve. Low values mean higher potency, high ones lower potency. For orientation: inhibition means the change of the read-out against control, counted positive when it falls. Read a high inhibition as a strong effect. For orientation: solubility means the dissolved amount per volume that the medium holds.

Myosin-2 heavy chain (Dictyostelium discoideum), sequence (P08799 whole entry): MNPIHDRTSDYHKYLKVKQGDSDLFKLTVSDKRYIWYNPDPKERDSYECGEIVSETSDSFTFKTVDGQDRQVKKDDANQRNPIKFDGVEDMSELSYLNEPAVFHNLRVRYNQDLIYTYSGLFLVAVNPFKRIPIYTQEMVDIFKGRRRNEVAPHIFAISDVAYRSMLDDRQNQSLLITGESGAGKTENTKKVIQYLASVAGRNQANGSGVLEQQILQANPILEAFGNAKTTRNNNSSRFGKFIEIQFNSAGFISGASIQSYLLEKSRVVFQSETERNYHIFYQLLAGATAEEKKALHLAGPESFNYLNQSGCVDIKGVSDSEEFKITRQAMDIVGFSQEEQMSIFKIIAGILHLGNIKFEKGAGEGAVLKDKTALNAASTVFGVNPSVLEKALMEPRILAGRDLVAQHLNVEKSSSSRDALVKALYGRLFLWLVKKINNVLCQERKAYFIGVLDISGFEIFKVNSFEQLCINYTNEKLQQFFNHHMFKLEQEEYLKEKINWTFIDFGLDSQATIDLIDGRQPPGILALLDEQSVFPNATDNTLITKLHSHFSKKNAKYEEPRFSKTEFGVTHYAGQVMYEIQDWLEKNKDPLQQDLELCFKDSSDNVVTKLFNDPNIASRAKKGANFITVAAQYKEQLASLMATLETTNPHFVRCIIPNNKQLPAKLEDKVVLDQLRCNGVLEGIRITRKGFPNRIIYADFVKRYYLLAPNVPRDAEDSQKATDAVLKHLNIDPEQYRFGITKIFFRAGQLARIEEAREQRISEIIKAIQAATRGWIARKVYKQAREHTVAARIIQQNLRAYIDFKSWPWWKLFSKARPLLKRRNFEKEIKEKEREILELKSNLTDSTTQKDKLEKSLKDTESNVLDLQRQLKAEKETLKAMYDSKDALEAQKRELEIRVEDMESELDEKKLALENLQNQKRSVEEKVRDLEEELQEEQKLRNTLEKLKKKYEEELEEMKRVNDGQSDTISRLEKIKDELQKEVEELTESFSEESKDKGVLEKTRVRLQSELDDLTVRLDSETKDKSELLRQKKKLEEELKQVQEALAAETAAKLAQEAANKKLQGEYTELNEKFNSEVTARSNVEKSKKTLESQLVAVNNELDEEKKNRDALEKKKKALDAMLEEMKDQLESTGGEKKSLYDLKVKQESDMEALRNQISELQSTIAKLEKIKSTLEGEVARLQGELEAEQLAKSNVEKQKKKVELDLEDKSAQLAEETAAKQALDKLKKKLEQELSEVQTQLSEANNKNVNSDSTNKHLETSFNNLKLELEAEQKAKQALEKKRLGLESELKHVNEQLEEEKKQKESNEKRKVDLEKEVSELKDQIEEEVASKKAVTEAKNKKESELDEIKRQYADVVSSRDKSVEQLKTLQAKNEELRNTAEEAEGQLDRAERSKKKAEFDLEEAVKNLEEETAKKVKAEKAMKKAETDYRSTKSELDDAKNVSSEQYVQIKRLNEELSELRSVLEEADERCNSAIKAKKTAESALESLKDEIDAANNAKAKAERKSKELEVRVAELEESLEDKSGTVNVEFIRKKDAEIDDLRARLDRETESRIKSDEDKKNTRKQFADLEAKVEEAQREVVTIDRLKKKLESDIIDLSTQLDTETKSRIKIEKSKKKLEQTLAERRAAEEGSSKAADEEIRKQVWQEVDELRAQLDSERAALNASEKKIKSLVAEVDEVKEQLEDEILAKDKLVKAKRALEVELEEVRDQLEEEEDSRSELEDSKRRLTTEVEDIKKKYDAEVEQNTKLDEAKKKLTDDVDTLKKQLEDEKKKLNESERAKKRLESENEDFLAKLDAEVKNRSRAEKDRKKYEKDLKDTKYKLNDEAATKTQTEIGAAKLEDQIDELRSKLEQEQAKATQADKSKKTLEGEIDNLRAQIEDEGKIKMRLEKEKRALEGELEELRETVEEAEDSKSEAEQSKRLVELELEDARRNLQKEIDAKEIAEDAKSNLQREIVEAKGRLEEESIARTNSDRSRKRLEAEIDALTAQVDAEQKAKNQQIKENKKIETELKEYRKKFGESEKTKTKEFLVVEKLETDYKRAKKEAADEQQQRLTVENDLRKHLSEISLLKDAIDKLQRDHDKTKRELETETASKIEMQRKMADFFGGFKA
T1 sequence (P08799 whole entry): as above

The compound `O=C1c2ccc([N+](=O)[O-])cc2N=C2N(c3ccccc3)CC[C@@]12O` yielded an IC50 in [1] of 28 µM.
As for `Cc1ccc2c(c1)C(=O)[C@]1(O)CCN(c3ccc(N=[N+]=[N-])cc3)C1=N2`, inhibition against Myosin-2 heavy chain [2] was half-maximal at 5.2 µM (IC50).
In the case of `O=C1c2ccccc2N=C2N(c3ccccc3)CC[C@@]12O`, the inhibition in the data set listed under Oryctolagus cuniculus [3] was determined as 84%; in data set [4], 88%; in the data set listed under Oryctolagus cuniculus [5], 95%.
For `Cc1ccc2c(c1)C(=O)[C@]1(O)CCN(c3ccc([N+](=O)[O-])cc3)C1=N2`, the half-inhibitory concentration (IC50) against Myosin-4 is 0.4 µM; at Myosin-2 heavy chain [2], 2.3 µM.
For the compound `Cc1cccc2c1N=C1N(c3ccccc3)CC[C@@]1(O)C2=O`, the inhibition amounted to 31% in the data set listed under Oryctolagus cuniculus [3], 35% in [4] and 72% in the data set filed under Oryctolagus cuniculus [5].
For the compound `Cc1ccc2c(c1)C(=O)[C@]1(O)CCN(c3ccccc3)C1=N2`, the Activity in the data set on DU-145 [6] was 30%; in data set [7], 30%; with DU-145 [9], 90%; with Capan-2, 45%; in data set [11], 30%; in the data set on BXPC-3 it was 25%. Moreover, the Activity worked out at 100% in data set [12]; 0% in the data set on PANC-1; 96% in the data set with LNCaP [13]; 90% with HeLa; 85% in [14]; 10% in the data set with LNCaP [15]. The results for the Activity in the data set with MIA PaCa-2, in the data set with U-87 MG [17] and in the data set with U-87 MG [18] were 20%, 40% and 65%, respectively. In data set [8], the mortality at 36 h, 10 µM worked out at 100%. For the same compound, in data set [10], the mortality at 72 h, 20 µM amounted to 0%. For the same compound, the solubility was 80 µM (≈ 23.4 µg/mL) in data set [16] and 7 to 11 µM (≈ 2.05 to 3.22 µg/mL) in [19].
On to `Cc1ccc2c(c1)C(=O)[C@]1(O)CCN(c3ccc(Cl)cc3)C1=N2`, for which the IC50 on Myosin-2 heavy chain [20] turned out to be 1.9 µM.
Turning to `Cc1ccc2c(c1)N=C1N(c3ccccc3)CC[C@@]1(O)C2=O`, the inhibition in the data set listed under Oryctolagus cuniculus [3] was found to be 86%; in data set [4], 90%; in the data set filed under Oryctolagus cuniculus [5], 94%.
Take `Cc1ccc2c(c1)C(=O)C1(O)CCN(c3ccccc3)C1=N2` (racemic): the IC50 in data set [21] is 2.3 µM; in [22], 5.5 to 23.5 µM; against Myosin IC heavy chain it was greater than 150 µM; on Myosin-10 it was 4.6 µM; in [23] it was greater than 200 µM; against Unconventional myosin-Ib, greater than 150 µM. Moreover, the IC50 was 1.2 µM on Myosin-7; 0.22 to 4.32 µM against Myosin-4; greater than 150 µM on Unconventional myosin-Va; 4.3 to 11 µM in [24]; 83 µM in [25]; 4 to 14 µM against Myosin-9. The IC50 was greater than 150 µM against Unconventional myosin-X; 3.2 µM on Myosin-14; 1.8 µM in data set [26]; greater than 100 µM at Unconventional myosin-XV; 80 µM in data set [27].
`Cc1cccc2c1C(=O)[C@]1(O)CCN(c3ccccc3)C1=N2`: the inhibition is 86% in the data set filed under Oryctolagus cuniculus [3], 88% in data set [4] and 95% in the data set filed under Oryctolagus cuniculus [5].
